Source: article PMC4389225, “Triaminopyrimidine is a fast-killing and long-acting antimalarial clinical candidate” (Nature Communications, 2015)
≈ marks a conversion by molar mass, not a printed value.

Columns and labels:
[1] = system: asexual blood stage of Pf; experiment: Pf asexual blood stage potency (Pf IC50); type: cell-based, Plasmodium falciparum; conditions: Plasmodium falciparum
From the text: The TAPs series emerged from a high-throughput screen (HTS) of 500,000 compounds from the AstraZeneca corporate library against the asexual blood stage of Pf using a high-content image-based approach. The procedure for synthesis of compounds 1-6, 10, 11 using a scheme similar to Fig. 1 is provided in Supplementary Note 1. The initial hit provided multiple diversification points for a robust lead optimization campaign. […] Compounds with 2-pyridyl modification at the 2-amino position of pyrimidine core improved potency and solubility at the cost of potent activity against hERG and acetylcholine esterase (AChE; compounds 3-6; Table 1). […] The observed hERG and AChE selectivity improvement with 7 could be attributed to the polar nature of the pyrazole group and its role in reducing the pKa of the core pyrimidine ring. […] To assess the potential for cross-resistance, representative TAPs were screened against a panel of clinical isolates and in vitro-generated mutant strains displaying varying mechanisms of resistance to antimalarial agents currently in use and under development, respectively, (Supplementary Tables 1–3).

[2] = target: T1, hERG (Homo sapiens, UniProt Q12809); experiment: electrophysiology-based hERG assay using IonWorks HT (CHO cells); type: cell-based; conditions: hERG IC50
T1 construct: expressed in transfected cells; host or cells: CHO cells
T1 sequence (Q12809 whole entry): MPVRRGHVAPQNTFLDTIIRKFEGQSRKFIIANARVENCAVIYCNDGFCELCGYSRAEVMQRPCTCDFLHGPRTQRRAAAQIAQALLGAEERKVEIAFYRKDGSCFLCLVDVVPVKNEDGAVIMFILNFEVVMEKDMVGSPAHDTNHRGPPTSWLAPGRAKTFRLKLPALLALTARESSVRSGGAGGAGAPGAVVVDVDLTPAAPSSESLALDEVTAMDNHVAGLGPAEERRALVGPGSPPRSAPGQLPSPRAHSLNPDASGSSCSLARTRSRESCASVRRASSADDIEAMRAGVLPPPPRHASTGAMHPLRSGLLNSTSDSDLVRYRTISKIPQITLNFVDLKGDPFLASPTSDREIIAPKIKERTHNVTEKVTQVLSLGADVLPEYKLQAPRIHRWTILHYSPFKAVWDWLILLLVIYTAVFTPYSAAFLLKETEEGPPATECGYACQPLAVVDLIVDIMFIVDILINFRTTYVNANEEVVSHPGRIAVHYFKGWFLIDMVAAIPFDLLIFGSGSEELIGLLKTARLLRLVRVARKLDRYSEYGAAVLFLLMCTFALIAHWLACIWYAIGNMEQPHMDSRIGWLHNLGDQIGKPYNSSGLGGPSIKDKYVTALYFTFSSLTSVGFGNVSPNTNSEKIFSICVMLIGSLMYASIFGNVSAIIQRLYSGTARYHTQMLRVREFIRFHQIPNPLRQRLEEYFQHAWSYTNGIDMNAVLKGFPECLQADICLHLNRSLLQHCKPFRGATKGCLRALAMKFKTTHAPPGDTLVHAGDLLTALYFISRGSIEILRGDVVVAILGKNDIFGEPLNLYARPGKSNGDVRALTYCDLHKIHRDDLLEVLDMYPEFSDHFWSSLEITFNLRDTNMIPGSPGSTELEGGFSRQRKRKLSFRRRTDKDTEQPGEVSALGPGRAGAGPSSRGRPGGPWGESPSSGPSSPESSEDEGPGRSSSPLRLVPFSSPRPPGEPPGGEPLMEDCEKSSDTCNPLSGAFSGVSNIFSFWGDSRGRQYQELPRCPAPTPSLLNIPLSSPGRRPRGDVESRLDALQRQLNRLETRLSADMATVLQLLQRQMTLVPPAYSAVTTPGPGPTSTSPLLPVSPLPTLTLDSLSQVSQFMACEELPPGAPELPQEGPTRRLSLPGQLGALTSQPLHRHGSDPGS
Experimental: hERG IC50 was determined in an electrophysiology-based hERG assay using IonWorks HT (CHO cells) as described earlier.

[3] = Solubility

Q: For `CCc1ccc(Nc2ncc(N3CCN(C)CC3)c(N3CCCC3)n2)cc1` [compound 1], which IC50 [1] is on record?
A: 150 nM

Q: And the IC50 [2]?
A: 3700 nM

Q: What about the solubility [3] of the same molecule?
A: 10 µM (≈ 3.67 µg/mL)
